Assay results: article PMC3079577 (Nature, 2010)
Blank lines part the entries; values can stand above or below the compound they belong to.

Legend:
wild-type LeuT [1] = target: T1, wild-type LeuT (Aquifex aeolicus, UniProt O67854); assay: Isothermal titration calorimetry, Leu binding to wild-type LeuT; conditions: ITC, 25 °C, pH 7.0
Tyr 108 Phe–LeuT^K [2] = target: T2, Tyr 108 Phe–LeuT^K (Aquifex aeolicus, UniProt O67854, K288A/Y108F); assay: Isothermal titration calorimetry, Leu binding to Tyr 108 Phe mutant; conditions: ITC, 25 °C, pH 7.0
wild-type LeuT [3] = target: T1, wild-type LeuT; assay: Equilibrium dialysis, [3H]Leu binding to wild-type LeuT; conditions: single-site fit, 23 °C, 6 h, listed as [^3H]Leu
Tyr 108 Phe–LeuT^K [4] = target: T2, Tyr 108 Phe–LeuT^K; assay: Equilibrium dialysis, [3H]Leu binding to Tyr 108 Phe mutant; conditions: single-site fit, 23 °C, 6 h, listed as [^3H]Leu
wild-type LeuT [5] = target: T1, wild-type LeuT; assay: Scintillation proximity assay, [3H]Leu binding to wild-type LeuT; conditions: SPA
LeuT Leu 400 Ala mutant = LeuT Leu 400 Ala mutant (Aquifex aeolicus, UniProt O67854, L400A); assay: Scintillation proximity assay, [3H]Leu binding to Leu 400 Ala mutant; conditions: SPA, 400 nM protein, Fig 2b; listed as [^3H]Leu
LeuT Leu 400 Cys mutant = LeuT Leu 400 Cys mutant (Aquifex aeolicus, UniProt O67854, L400C); assay: Scintillation proximity assay, [3H]Leu binding to Leu 400 Cys mutant; conditions: SPA, 400 nM protein, Fig 2b; listed as [^3H]Leu
[6] = target: LeuT^K (Lys 288 Ala LeuT) (Aquifex aeolicus, UniProt O67854, K288A)
LeuT = conditions: cited from earlier work
[7] = two-site, ordered-binding model fit, parameters not well fitted

ΔH of binding (wild-type LeuT [1]): -3.93 ± 0.02 kcal/mol
−TΔS of binding (wild-type LeuT [1]): -6.01 ± 0.13 kcal/mol
Stoichiometry N (substrate-to-LeuT) (wild-type LeuT [1]; single-site model): 0.70±0.01 mol/mol LeuT
ΔH of binding (Tyr 108 Phe–LeuT^K [2]): -1.92 ± 0.03 kcal/mol
Stoichiometry N (Tyr 108 Phe–LeuT^K [2]; single-site model): 0.79±0.01 mol/mol LeuT
Stoichiometry (wild-type LeuT [3]): 0.73±0.03 mol/mol LeuT
Stoichiometry (Tyr 108 Phe–LeuT^K [4]): 0.72±0.02 mol/mol LeuT
Stoichiometry (wild-type LeuT [5]; 400 nM LeuT (~20 Kd), 25–1,200 nM [3H]Leu, Fig 2b): about 0.8 mol/mol LeuT
Stoichiometry (LeuT Leu 400 Ala mutant): about 0.8 mol/mol LeuT
Stoichiometry (LeuT Leu 400 Cys mutant): about 0.8 mol/mol LeuT
SMILES: CC(C)C[C@H](N)C(=O)O [Leu, L-leucine]

SMILES: C[C@H](N)C(=O)O [Ala, alanine]
Km ([6]; read-out: Km (Michaelis constant), pH 5, 200 mM inward Na+ gradient, 27 °C, no valinomycin): 0.79 ± 0.06 µM
Hill slope nH ([6]; steady-state data fitted to the Hill equation): 0.96±0.03
Vmax ([6]; two-site, ordered-binding model fit): 10,965±308 pmol min^−1 mg^−1
apparent dissociation constant KS [6, 7]: 6.8 ± 22 nM
dissociation coefficient α [6, 7]: 114±360

Effect of clomipramine on binding of Leu to wild-type LeuT (wild-type LeuT [5]; 10 nM LeuT, 1 mM clomipramine): no change
SMILES: CN(C)CCCN1c2ccccc2CCc2ccc(Cl)cc21 [clomipramine]
Mode of inhibition of LeuT transport (LeuT): non-competitive inhibitor
